{"source": "patent US9205121B2", "about": "“Echinacea formulation” (Integria Healthcare (Australia) PTY LTD, priority 2004, dated 2015)", "type_in_all_cases": "in vitro ADME", "key": {"human liver microsomes": {"system": "human liver microsomes", "description": "Livers were obtained from organ donors according to procedures is approved by the University of Queensland ethics committees. Samples of human liver were frozen in liquid nitrogen and stored at −70° C. prior to use. Microsomes were prepared according to the method of Guengerich except that microsomes were subjected to a final wash in 10 mM Tris-acetate, 1 mM EDTA and 20% glycerol pH 7.4 (resuspension buffer) to remove residual drugs (e.g. phenytoin—data not shown) present in donor livers.\nIncubations (0.5 mL) with tissue fractions contained either the microsomal fraction at […] or the cytosolic fraction at 5 mg/mL protein in 100 mM potassium phosphate (pH 7.4) supplemented with is substrates (synthetic alkylamides 6, 11, 3 and 12 or the alkylamide fraction from the ethanolic liquid as required—see Figure legends for concentrations used) added from ethanolic stocks. Final ethanol concentrations were either 0.70% or 0.96% and were consistent in each assay. Reactions were initiated by the addition of an NADPH-generating system consisting of (final concentrations) […] NADP+, 10 mM glucose-6-phosphate and 0.5 μ/mL glucose-6-phosphate dehydrogenase. Negative controls and cytosolic incubations lacked an NADPH-generating system. Reaction mixtures were incubated at 37° C. with gentle agitation for the duration of each experiment. Reactions were terminated by addition of an equal volume of 100% methanol to a sample aliquot. Diluted samples were then centrifuged at 16000×g for 2 minutes and supernatants stored at −20° C. until analysis by LCMS.\nAlkylamide concentrations in samples were determined by LCMS using a gradient HPLC system (Shimadzu LC1OAT) coupled to a quadrupole mass spectrometer (Shimadzu, QP8000a) operating in positive SIM mode with an APCI interface. The mobile phases were a mixture of water and acetonitrile. Alkylamides 6 and 3 were detected using a 65% acetonitrile isocratic run. Alkylamides 11 and 12 were detected using an 85% acetonitrile isocratic run. The alkylamide fraction was analysed using a gradient that increased from 20% to 40% acetonitrile over the first 5 minutes, then to 80% acetonitrile over the following 15 minutes and to 100% over the next 3 minutes followed by a re-equilibration period at 20% acetonitrile prior to the next injection. A similar gradient was used in scan and then SIM (M+1 of 248, 264, 246, 192, 280 and 282) modes to identify metabolites of 3. A C18, 3 m, 100×2.00 mm Phenomenex Luna column was used with a solvent flow rate of 0.3 mL/minute. All alkylamides were linear in the range 0.001-10 mg/mL (R^2>0.9) with a coefficient of variation between 4 and 5.\nA number of pure, synthetic alkylamides (6, 11 3 and 12 as shown in FIG. 1) as well as the complex mixture of alkylamides obtained from an ethanolic extract of Echinacea were investigated for their susceptibility to liver P450-mediated degradation in microsomal preparations from four different subjects. The concentration of each substrate remaining at the given time points was quantified with LCMS and rates of substrate depletion were calculated as a percentage of the original concentration. […] From FIG. 3 it can be seen that there was a clear difference in the ability of the liver microsomal P450s to metabolise the synthetic 2-ene and the 2,4-diene alkylamides. […] In contrast, the 2,4-dienes were rapidly metabolised with only 9±2% of the original concentration of 3 and 2±1% of the original concentration of 12 detected after 2 hours. […]"}, "liver P450": {"system": "liver P450", "experiment": "inhibition of 2,4-diene alkylamide metabolism by co-incubation with a 2-ene alkylamide in human liver microsomes", "conditions": "co-incubation of 3 with 6 at equimolar concentrations, 90 minutes", "procedure": "Compound 3 was present at 20 μM in all experiments while 6 was present at (●) 0, (∘) 0.22, (▪) 2.2, ( ) 5.5, (▴) 9.0 and (Δ) 20 uM. Each point represents the mean for one microsomal preparation examined in duplicate. The deviation was less than 15 for each point.\nIncubations (0.5 mL) with tissue fractions contained either the microsomal fraction at 0.1-0.2 mM P450 or the cytosolic fraction at 5 mg/mL protein in 100 mM potassium phosphate (pH 7.4) supplemented with is substrates (synthetic alkylamides 6, 11, 3 and 12 or the alkylamide fraction from the ethanolic liquid as required—see Figure legends for concentrations used) added from ethanolic stocks. Final ethanol concentrations were either 0.70% or 0.96% and were consistent in each assay. Reactions were initiated by the addition of an NADPH-generating system consisting of (final concentrations) 250 mM NADP+, 10 mM glucose-6-phosphate and 0.5 μ/mL glucose-6-phosphate dehydrogenase. Negative controls and cytosolic incubations lacked an NADPH-generating system. Reaction mixtures were incubated at 37° C. with gentle agitation for the duration of each experiment. Reactions were terminated by addition of an equal volume of 100% methanol to a sample aliquot. Diluted samples were then centrifuged at 16000×g for 2 minutes and supernatants stored at −20° C. until analysis by LCMS."}, "P450 2A13": {"molecular_target": "T1, P450 2A13 (Homo sapiens, UniProt Q16696)", "T1 construct": "made in house; host or cells: Escherichia coli, bacterial membrane fraction", "T1 sequence (Q16696 1-494)": "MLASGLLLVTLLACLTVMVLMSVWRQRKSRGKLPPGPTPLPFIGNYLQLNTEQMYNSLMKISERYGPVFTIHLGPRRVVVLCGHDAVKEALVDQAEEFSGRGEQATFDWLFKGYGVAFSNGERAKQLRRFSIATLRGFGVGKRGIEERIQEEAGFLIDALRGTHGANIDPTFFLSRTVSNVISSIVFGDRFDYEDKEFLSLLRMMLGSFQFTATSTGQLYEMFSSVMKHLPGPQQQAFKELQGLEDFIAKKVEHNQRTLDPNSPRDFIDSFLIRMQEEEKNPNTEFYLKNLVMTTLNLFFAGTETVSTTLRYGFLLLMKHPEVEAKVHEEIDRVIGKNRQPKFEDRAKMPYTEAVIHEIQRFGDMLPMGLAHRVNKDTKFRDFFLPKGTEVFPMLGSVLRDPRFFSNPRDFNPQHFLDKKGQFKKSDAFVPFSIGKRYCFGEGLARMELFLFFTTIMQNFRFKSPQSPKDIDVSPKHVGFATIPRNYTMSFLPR", "experiment": "metabolism of 3 by recombinant human P450", "conditions": "recombinant P450 2A13, preliminary screen"}}, "data": [{"smiles": "C/C=C\\C=C/CC/C=C/C=C/C(=O)NCC(C)C", "note": "[alkylamide 3, (2E,4E,8Z,10Z)—N-isobutyldodeca-2,4,8,10-tetraenamide]", "values": [{"measurement": "rate of alkylamide metabolism relative to the rate found for 6", "setting": "human liver microsomes", "value": "seven fold higher"}, {"measurement": "% of initial levels still present", "setting": "human liver microsomes; human, 2 h, pH 7.4", "value": "66±26", "unit": "%"}, {"measurement": "% of the original concentration of 3 detected", "setting": "liver P450", "value": "83±4", "unit": "%"}, {"measurement": "consumption of 3", "setting": "P450 2A13", "value": "observed"}]}]}
